Values of other authors in patent publication US20050196503A1, “High-intensity sweetener-polyol compositions” (priority 2004, published 2005).
Residues, ends and D or L forms follow the SMILES beside them.

Conditions: for Approximate sweetness (sucrose = 1): relative to sucrose, weight basis; for sweetness relative to sucrose: percent of the sweetness of sucrose; for sweetness strength or sweetening potency, times that of sucrose: in terms of weight ratio

Molecule	Approximate sweetness (sucrose = 1)	sweetness relative to sucrose [%]	sweetness strength or sweetening potency, times that of sucrose
OC[C@@H](O)[C@@H](O)[C@H](O)[C@@H](O)CO [Sorbitol]	0.6	–	–
OC[C@@H](O)[C@H](O)[C@@H](O)CO [Xylitol]	1.0	100	–
OC[C@@H](O)[C@@H](O)CO [Erythritol]	0.7	–	–
Isomalt [Isomalt (platinit)]	0.45-0.65	–	–
OC[C@@H](O)[C@@H](O)[C@H](O)[C@H](O)CO [Mannitol]	0.7	–	–
OC[C@H]1O[C@H](O[C@]2(CCl)O[C@H](CCl)[C@@H](O)[C@@H]2O)[C@H](O)[C@@H](O)[C@H]1Cl [Sucralose]	600	–	–
O=C1NS(=O)(=O)c2ccccc21 [Saccharin]	300	–	–
COC(=O)[C@H](Cc1ccccc1)NC(=O)[C@H](CC(=O)O)NCCC(C)(C)C [Neotame]	8,000	–	~10,000 times
OC[C@@H](O)[C@@H](O[C@H]1O[C@H](CO)[C@@H](O)[C@H](O)[C@H]1O)[C@H](O)[C@@H](O)CO [Malitol, maltitol]	0.9	90	–
CC1=CC(=O)[N-]S(=O)(=O)O1.[K+] [Acesulfame-K]	200	–	about 200 times
COC(=O)[C@H](Cc1ccccc1)NC(=O)[C@@H](N)CC(=O)O [Aspartame] (H-Asp-Phe-OMe)	180	–	about 180 times
OC[C@@H](O)[C@@H](O[C@@H]1O[C@H](CO)[C@H](O)[C@H](O)[C@H]1O)[C@H](O)[C@@H](O)CO [Lactitol]	0.4	–	–
